Test results from US8440417B2, “Method for assaying compounds or agents for ability to displace potent ligands of hematopoietic prostaglandin D synthase” (Cayman Chemical Company, Incorporated, priority 2008, dated 2013).
Like-named read-outs stand apart in the source and are kept apart here.

Experiments:
[1] = target: MBP-H-PGDS fusion enzyme (Homo sapiens, UniProt O60760); assay: MBP-H-PGDS fluorescence polarization (FP) displacement assay; assay type: binding; conditions: detection analyte Compound 20; mean ± spread, N in cell; read-out: MBP-H-PGDS FP Assay: test compound IC50
Experimental: Detection analyte and H-PGDS-MBP fusion enzyme were incubated in the presence of reduced glutathione (5 mM) for 30-60 minutes at room temperature and FP was measured using a TECAN SAFIRE 2 plate reader equipped with absorbance, fluorescence, fluorescence polarization and FRET capabilities. Assays were performed in 96-well microtiter plates in 100 μL of total sample volume. Excitation and emission wavelengths appropriate for the employed detection analyte were used.
H-PGDS-Maltose binding protein (MBP; 100 μl, 0.5 mg/ml) fusion (MBP-H-PGDS fusion) (FIG. 6) was diluted with 1×FP buffer (900 μL).
Into a 50 mL conical tube was added the H-PGDS 1×FP buffer (18.65 mL), H-PGDS FP fluorescent probe—green (138 μL), MBP-H-PGDS fusion dilution (880 μL), and glutathione solution (1,250 μL).
Assay cocktail (47.5 μL) was added to each plate well.
Test compound solutions (2.5 μL) were added to the wells. […] The IC50 for a particular test compound was obtained by performing a full concentration titration versus a full concentration titration of positive control. Comparison of a single concentration of a test compound to the maximum binding well provided an assessment of the relative affinity of the test compound for MBP-H-PGDS.
The plate was covered and incubated for 60-90 minutes at room temperature. The FP signal is stable for at least two hours.
Plates were read with excitation and emission wavelengths of 470 nm and 530 nm (for detection analyte comprising the fluorescein fluorophore), respectively.
fluorescence polarization of a molecule is defined as: Polarization (mP)=1,000×(Iparallel−Iperpendicular)/(Iparallel+Iperpendicular) where Iparallel is the parallel emission intensity measurement and Iperpendicular is the perpendicular emission intensity measurement.
The clone was then transformed into the expression strain BL21 (DE3) star cells and a glycerol stock was generated. The expected size is 66.29 kDa.

[2] = target: T1, H-PGDS (Homo sapiens, UniProt O60760); conditions: [1-14C]PGH2 to [1-14C]PGD2, RIA; Aritake et al. 2006; read-out: Reported H-PGDS inhibition IC50; cited from earlier work
[3] = tested on: PGD2 levels in guinea pig lung tissues; conditions: chronic treatment; Matsushita et al. 1998; cited from earlier work
[4] = target: T1, H-PGDS; conditions: order of magnitude in words; cited from earlier work
[5] = target: T1, H-PGDS; conditions: Taiho poster / patent application, method not stated; read-out: Reported H-PGDS inhibition IC50; cited from earlier work
[6] = target: T1, H-PGDS; conditions: GSH-MCB conjugation, fluorometry; Evotec WO 2008/122787, AstraZeneca J. Med. Chem. 2008; read-out: Reported H-PGDS inhibition IC50; cited from earlier work

T1 sequence (O60760 whole entry, species assumed): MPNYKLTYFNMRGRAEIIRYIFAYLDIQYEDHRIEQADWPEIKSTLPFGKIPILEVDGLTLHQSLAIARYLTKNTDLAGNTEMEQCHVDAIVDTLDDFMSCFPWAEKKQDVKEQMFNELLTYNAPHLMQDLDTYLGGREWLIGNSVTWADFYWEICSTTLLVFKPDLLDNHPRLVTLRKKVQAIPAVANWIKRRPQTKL
MBP-H-PGDS fusion enzyme, sequence (O60760 2-199, looked up): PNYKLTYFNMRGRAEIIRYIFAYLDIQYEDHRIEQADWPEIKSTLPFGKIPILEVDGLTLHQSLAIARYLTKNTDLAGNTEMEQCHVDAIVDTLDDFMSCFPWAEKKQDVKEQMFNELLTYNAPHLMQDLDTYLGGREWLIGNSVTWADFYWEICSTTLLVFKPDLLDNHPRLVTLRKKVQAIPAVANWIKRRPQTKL

| IC50 [1] | Structure (SMILES) | further results |
| --- | --- | --- |
| 125 nM | O=C(NCc1ccccc1)c1cnc(-c2ccccc2)nc1 | – |
| 15000 nM | c1ccc(C(OC2CCN(CCCc3nnn[nH]3)CC2)c2ccccc2)cc1 | IC50 [2]: 6000 nM; PGD2 levels in guinea pig lung tissues [3]: reduce PGD2 levels; IC50 against H-PGDS in known in vitro assays [4]: micromolar |
| 50 ± 14 nM | O=C(NC1CCN(Cc2ccccc2)CC1)c1cnc(-c2ccccc2)nc1 | – |
| 30 nM | O=C(NC1CCN(Cc2ccccc2)CC1)c1ccc(-c2ccccc2)nc1 | – |
| 30 nM | O=C(NC1CCN(Cc2ccccc2)CC1)c1ccc(-c2cccc(F)c2)nc1 | – |
| 38 ± 11 nM | O=C(Nc1ccc(N2CCOCC2)cc1)c1cnc(Oc2ccccc2)nc1 | IC50 [5]: 190 nM |
| 308 ± 11 nM | Cc1ccc2nc(NC(=O)N3CCN(C(=O)c4cccc(F)c4)CC3)sc2c1 | IC50 [6]: 1 to 10 nM |
| 25 ± 7 nM | Cc1[nH]c(C(=O)CCCc2ccccn2)c(C)c1-c1nc2cc(C(=O)c3ccccc3)ccc2[nH]1 | IC50 [5]: 72 nM |
| 438 ± 265 nM | c1ccc(-c2ncc(-c3cc[nH]n3)s2)cc1 | – |
| 375 ± 180 nM | O=C(NCCNc1ccccc1)c1cnc(-c2ccccc2)nc1 [2-phenyl-N-(2-(phenylamino)ethyl)pyrimidine-5-carboxamide] | – |
| 250000 nM | O=C(c1cnc(-c2ccccc2)nc1)N1CCNCC1 [(2-phenylpyrimidin-5-yl)(piperazin-1-yl)methanone] | – |
| 200 to 300 nM | NCCNS(=O)(=O)c1cccc(CNC(=O)c2cnc(-c3ccccc3)nc2)c1 [Compound 19, N-(3-(N-(2-aminoethyl)sulfamoyl)benzyl)-2-phenylpyrimidine-5-carboxamide] | – |
| 575 ± 460 nM | COc1ccc(CNC(=O)c2ccc(-c3ccccc3)nc2)cc1OC [N-(3,4-dimethoxybenzyl)-6-phenylnicotinamide] | – |
| 900 ± 140 nM | Cc1nc(-c2cccc(F)c2)sc1C(=O)NCc1ccccc1 [N-benzyl-2-(3-fluorophenyl)-4-methylthiazole-5-carboxamide] | – |
| – | COc1ccc(/C=C/C(=O)Nc2ccccc2C(=O)O)cc1OC [Tranilast] | IC50 against H-PGDS in known in vitro assays [4]: micromolar |
